For 29 compounds, TGI results are on record in PubChem BioAssay (NCI).

The structures appear in SMILES notation.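 Method: 48-hour compound exposure of cells in 96-well plates, five concentrations, linear interpolation of endpoints. The concentration for full growth arrest is given as TGI.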 A value given as a limit tells only on which side of the number the result lay.

One experiment has as its system HCT-116 colon. Put plainly: NCI tumour cell line growth inhibition, 48 h.
Consider `O=C(/C=C\Nc1ccccc1O)C(F)(F)F`, for which the TGI was > 100 µM.

Consider `CC1(C)OC[C@@H](C[C@H](O)COCc2ccccc2)O1`, for which the TGI was > 100 µM.

Turning to `NC(N)=NS(=O)(=O)c1ccc(NC(=O)c2cccc3c(NNc4ccc(S(N)(=O)=O)cc4)c4ccccc4nc23)cc1`, the TGI was > 100 µM.

`CC(=O)N(C)c1ccc(Nc2ccnc3ccc4nn(C)nc4c23)cc1`: the TGI was 53.1 µM.

With `Nc1nncc2[nH]cnc12`, the TGI was > 100 µM.

In turn, `S=c1[nH]nc(Cn2c3ccc(Br)cc3c3nc4ccccc4nc32)n1C1CCCCC1` showed a TGI of 40.2 µM.

On to `COc1ccc2c(c1)-c1c(c3cc(OC)ccc3n1CCN(C)C)CC2`, for which the TGI was found to be 24.4 µM.

`COc1ccc(C2=C(Cl)C(=O)O/C2=C\c2ccc(OC)c(Br)c2)cc1Cl` had a TGI of 53.1 µM.

Compound `CNC(=S)NNc1ncnc2c1c(-c1ccc(Cl)cc1)cn2-c1ccc(C)cc1` showed a TGI of 17.1 µM.

For the compound `CCCCCCCCCCCCNC(=O)CCC(NC(=O)c1ccc(N(C)Cc2cnc3nc(N)nc(N)c3n2)cc1)C(=O)NCCCCCCCCCCCC` (stereo not given), the TGI is > 100 µM.

Turning to `Clc1cc(C(c2cc(Cl)sc2Cl)c2cc(Cl)sc2Cl)c(Cl)s1`, the TGI was > 100 µM.

Turning to `COc1cc(OC)cc(Oc2nc3cc(F)c(F)cc3nc2-c2ccccc2)c1`, the TGI was > 100 µM.

`Cc1cc(S(=O)(=O)Nc2n[nH]c(Nc3ccccc3)n2)c(SCC(=O)O)cc1Cl`: the TGI is > 100 µM.

Take `NCCN(CCN(C(=O)Nc1ccccc1)c1ccccc1)C(=O)Nc1ccccc1`: the TGI is 33.5 µM.

For `C[C@H](c1ccccc1)N1C(=O)[C@@H](OCc2ccccc2)[C@H]1[C@H](COC(=O)COCc1ccccc1)OCc1ccccc1`, the TGI was > 100 µM.

Another experiment deals with MDA-N. Put plainly: NCI tumour cell line growth inhibition, 48 h.
Regarding `Cc1ccc2c(c1C)CC1(Cc3c(C)ccc(C)c3C1=O)C2=O` (stereo not given), the TGI was > 100 µM.

`O=CN1CCN(C(=O)c2ccco2)C1=S`: the TGI amounted to 24.7 µM.

Regarding `CC(=O)C1(O)CCC2(O)C3(O)CC=C4CC(O)CCC4(C)C3CC(OC(=O)c3ccc(O)cc3)C12C` (stereo not given), the TGI is > 100 µM.

For the compound `Clc1ccc(OCc2nnc(COc3ccc(OCc4nnc(COc5ccc(Cl)cc5Cl)o4)c(Cl)c3)o2)c(Cl)c1`, the TGI was > 100 µM.

For the compound `O=C1/C(=C/c2ccncc2)C(n2cccc2)c2c(Br)sc(Br)c21` (stereo not given), the TGI was determined as 8.36 µM.

With `C=C1CC(COc2ccc3c(C)c(C)c(=O)oc3c2C)(c2ccccc2)OC1=O` (stereo not given), the TGI turned out to be 4.4 µM.

With `CC(=O)OCC(=O)O[C@@H]1[C@H]2[C@@H](OC(=O)c3ccccc3)[C@@H](C)C[C@]2(O)[C@H](OC(C)=O)[C@@]2(C)C[C@]1(OC(C)=O)C[C@H]1C(=O)C(C)(C)[C@@H](OC(C)=O)[C@@H]12`, the TGI was > 25 µM.

On to `O=C(Sc1c(-c2ccccc2)c(=O)n(-c2ccccc2)c(=S)n1-c1ccccc1)c1ccco1`, for which the TGI is > 100 µM.

Take `Cn1nc2c(c1N)Cc1c(nn(C)c1N)-c1ccccc1-2`: the TGI was > 100 µM.

With `O=c1ccn(-c2ccccn2)c(=O)n1-c1ccccn1`, the TGI is > 100 µM.

As to `O=C1NC(=S)NC(=O)C1C(c1ccc(Cl)cc1)C1C(=O)NC(=S)NC1=O`, the TGI was > 100 µM.

As for `COC(=O)C1=C(C(=O)OC)SC(=C2SC3=C(SC(=C4SCCS4)S3)S2)S1`, the TGI was > 100 µM.

Consider `CCC(=O)Nc1ccc(NS(=O)(=O)c2ccc(Cl)cc2)cc1`, for which the TGI was > 100 µM.

For `COc1cccc(N2C(=O)CS(=O)(=O)C2c2cccc(Oc3ccccc3)c2)c1` (stereo not given), the TGI was determined as 6.45 µM.

On to `O=C(/C=C\Nc1ccccc1O)C(F)(F)F`, for which the TGI is > 100 µM.

In the case of `CC1(C)OC[C@@H](C[C@H](O)COCc2ccccc2)O1`, the TGI was > 100 µM.

For `NC(N)=NS(=O)(=O)c1ccc(NC(=O)c2cccc3c(NNc4ccc(S(N)(=O)=O)cc4)c4ccccc4nc23)cc1`, the TGI was > 100 µM.

As to `CC(=O)N(C)c1ccc(Nc2ccnc3ccc4nn(C)nc4c23)cc1`, the TGI is > 100 µM.

On to `Nc1nncc2[nH]cnc12`, for which the TGI is > 100 µM.

In the case of `S=c1[nH]nc(Cn2c3ccc(Br)cc3c3nc4ccccc4nc32)n1C1CCCCC1`, the TGI was > 93.7 µM.

The compound `COc1ccc2c(c1)-c1c(c3cc(OC)ccc3n1CCN(C)C)CC2` showed a TGI of 27.9 µM.

With `COc1ccc(C2=C(Cl)C(=O)O/C2=C\c2ccc(OC)c(Br)c2)cc1Cl`, the TGI is > 100 µM.

For the compound `CNC(=S)NNc1ncnc2c1c(-c1ccc(Cl)cc1)cn2-c1ccc(C)cc1`, the TGI was 28 µM.

As for `CCCCCCCCCCCCNC(=O)CCC(NC(=O)c1ccc(N(C)Cc2cnc3nc(N)nc(N)c3n2)cc1)C(=O)NCCCCCCCCCCCC` (stereo not given), the TGI was > 100 µM.

With `Clc1cc(C(c2cc(Cl)sc2Cl)c2cc(Cl)sc2Cl)c(Cl)s1`, the TGI is > 100 µM.

Turning to `COc1cc(OC)cc(Oc2nc3cc(F)c(F)cc3nc2-c2ccccc2)c1`, the TGI was > 100 µM.

Turning to `Cc1cc(S(=O)(=O)Nc2n[nH]c(Nc3ccccc3)n2)c(SCC(=O)O)cc1Cl`, the TGI is > 100 µM.

The compound `NCCN(CCN(C(=O)Nc1ccccc1)c1ccccc1)C(=O)Nc1ccccc1` had a TGI of 47.8 µM.

As for `C[C@H](c1ccccc1)N1C(=O)[C@@H](OCc2ccccc2)[C@H]1[C@H](COC(=O)COCc1ccccc1)OCc1ccccc1`, the TGI is > 100 µM.

Another experiment concerns NCI-H522 lung. Nature of the experiment: NCI tumour cell line growth inhibition, 48 h.
On to `Cc1ccc2c(c1C)CC1(Cc3c(C)ccc(C)c3C1=O)C2=O` (stereo not given), for which the TGI was > 100 µM.

The compound `O=CN1CCN(C(=O)c2ccco2)C1=S` had a TGI of 17.4 µM.

Consider `CC(=O)C1(O)CCC2(O)C3(O)CC=C4CC(O)CCC4(C)C3CC(OC(=O)c3ccc(O)cc3)C12C` (stereo not given), for which the TGI is > 100 µM.

`Clc1ccc(OCc2nnc(COc3ccc(OCc4nnc(COc5ccc(Cl)cc5Cl)o4)c(Cl)c3)o2)c(Cl)c1` registered a TGI of 38 µM.

Regarding `O=C1/C(=C/c2ccncc2)C(n2cccc2)c2c(Br)sc(Br)c21` (stereo not given), the TGI came out at 30.5 µM.

For `C=C1CC(COc2ccc3c(C)c(C)c(=O)oc3c2C)(c2ccccc2)OC1=O` (stereo not given), the TGI was determined as 4.16 µM.

For the compound `CC(=O)OCC(=O)O[C@@H]1[C@H]2[C@@H](OC(=O)c3ccccc3)[C@@H](C)C[C@]2(O)[C@H](OC(C)=O)[C@@]2(C)C[C@]1(OC(C)=O)C[C@H]1C(=O)C(C)(C)[C@@H](OC(C)=O)[C@@H]12`, the TGI is > 25 µM.

`O=C(Sc1c(-c2ccccc2)c(=O)n(-c2ccccc2)c(=S)n1-c1ccccc1)c1ccco1`: the TGI is > 100 µM.

Regarding `Cn1nc2c(c1N)Cc1c(nn(C)c1N)-c1ccccc1-2`, the TGI was > 100 µM.

Consider `O=c1ccn(-c2ccccn2)c(=O)n1-c1ccccn1`, for which the TGI was > 100 µM.

As to `O=C1NC(=S)NC(=O)C1C(c1ccc(Cl)cc1)C1C(=O)NC(=S)NC1=O`, the TGI was > 100 µM.

In the case of `COC(=O)C1=C(C(=O)OC)SC(=C2SC3=C(SC(=C4SCCS4)S3)S2)S1`, the TGI was > 100 µM.

Turning to `CCC(=O)Nc1ccc(NS(=O)(=O)c2ccc(Cl)cc2)cc1`, the TGI is > 100 µM.

`COc1cccc(N2C(=O)CS(=O)(=O)C2c2cccc(Oc3ccccc3)c2)c1` (stereo not given) returned a TGI of 37.6 µM.

Regarding `O=C(/C=C\Nc1ccccc1O)C(F)(F)F`, the TGI is > 100 µM.

For `CC1(C)OC[C@@H](C[C@H](O)COCc2ccccc2)O1`, the TGI was > 100 µM.

In the case of `NC(N)=NS(=O)(=O)c1ccc(NC(=O)c2cccc3c(NNc4ccc(S(N)(=O)=O)cc4)c4ccccc4nc23)cc1`, the TGI amounted to 91.6 µM.

As to `CC(=O)N(C)c1ccc(Nc2ccnc3ccc4nn(C)nc4c23)cc1`, the TGI came out at 41.2 µM.

`Nc1nncc2[nH]cnc12`: the TGI is > 100 µM.

`S=c1[nH]nc(Cn2c3ccc(Br)cc3c3nc4ccccc4nc32)n1C1CCCCC1` had a TGI of 67.4 µM.

For the compound `COc1ccc2c(c1)-c1c(c3cc(OC)ccc3n1CCN(C)C)CC2`, the TGI amounted to 34.1 µM.
